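Grown in 96-well plates, cells were treated for 48 hours with each compound at five concentrations. Insufficient inhibition: endpoint recorded as highest concentration tested. GI50 is the concentration that inhibits growth by half.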 Active and inactive are the calls of the source. Cut-off read from the data, not from the text of the source: active = GI50 up to about 1.1 µM and inactive = higher.
What was measured:
Experiment in all cases: NCI anticancer screen, dose series, 48 h
UACC-257 = test system: UACC-257
HOP-92 = test system: HOP-92
OVCAR-8 = test system: OVCAR-8
K562 = test system: K562
TK-10 = test system: TK-10
MDA-MB-435 = test system: MDA-MB-435
LOX IMVI = test system: LOX IMVI
HT-29 = test system: HT-29
SK-MEL-2 = test system: SK-MEL-2
OVCAR-4 = test system: OVCAR-4
SW-620 = test system: SW-620
KM12 = test system: KM12
SK-OV-3 = test system: SK-OV-3
NCI-H226 = test system: NCI-H226
HCC 2998 = test system: HCC 2998
OVCAR-5 = test system: OVCAR-5
786-0 = test system: 786-0
BT-549 = test system: BT-549
T47D = test system: T47D
OVCAR-3 = test system: OVCAR-3
EKVX = test system: EKVX
RXF 393 = test system: RXF 393
Malme-3M = test system: Malme-3M
M14 = test system: M14
DU-145 = test system: DU-145
SK-MEL-28 = test system: SK-MEL-28
U-251 = test system: U-251
A498 = test system: A498
UO-31 = test system: UO-31
NCI-H23 = test system: NCI-H23
MCF7 = test system: MCF7
PC-3 = test system: PC-3
NCI-H460 = test system: NCI-H460
SR = test system: SR
ACHN = test system: ACHN
SF-539 = test system: SF-539
HCT-116 = test system: HCT-116
MDA-N = test system: MDA-N
CCRF-CEM = test system: CCRF-CEM
SNB-75 = test system: SNB-75
MOLT-4 = test system: MOLT-4
SN12C = test system: SN12C
NCI-H522 = test system: NCI-H522
SK-MEL-5 = test system: SK-MEL-5
NCI/ADR-RES = test system: NCI/ADR-RES
SNB-19 = test system: SNB-19
A549 = test system: A549
MDA-MB-231 = test system: MDA-MB-231
HOP-62 = test system: HOP-62
IGROV-1 = test system: IGROV-1
Hs-578T = test system: Hs-578T
UACC-62 = test system: UACC-62
COLO 205 = test system: COLO 205
SF-268 = test system: SF-268
HCT-15 = test system: HCT-15
RPMI-8226 = test system: RPMI-8226
HL-60 = test system: HL-60
CAKI-1 = test system: CAKI-1

COc1ccc(OC)c2c3c([nH]c12)C(=O)Nc1nc(N)nc(N)c1C3
GI50 (UACC-257): > 100 µM (inactive)
GI50 (HOP-92): > 100 µM (inactive)
GI50 (OVCAR-8): 4.89 µM (inactive)
GI50 (K562): 0.634 µM (active)
GI50 (TK-10): > 100 µM (inactive)
GI50 (MDA-MB-435): 0.273 µM (active)
GI50 (LOX IMVI): > 100 µM (inactive)
GI50 (HT-29): 1.12 µM (inactive)
GI50 (SK-MEL-2): > 100 µM (inactive)
GI50 (OVCAR-4): > 100 µM (inactive)
GI50 (SW-620): 2.07 µM (inactive)
GI50 (KM12): 4.57 µM (inactive)
GI50 (SK-OV-3): > 100 µM (inactive)
GI50 (NCI-H226): > 100 µM (inactive)
GI50 (HCC 2998): > 100 µM (inactive)
GI50 (OVCAR-5): > 100 µM (inactive)
GI50 (786-0): > 100 µM (inactive)
GI50 (BT-549): > 100 µM (inactive)
GI50 (T47D): > 100 µM (inactive)
GI50 (OVCAR-3): 3.14 µM (inactive)
GI50 (EKVX): > 100 µM (inactive)
GI50 (RXF 393): > 100 µM (inactive)
GI50 (Malme-3M): 30.8 µM (inactive)
GI50 (M14): > 100 µM (inactive)
GI50 (DU-145): > 100 µM (inactive)
GI50 (SK-MEL-28): > 100 µM (inactive)

O=C(Cn1c(=O)oc2ccc(C(=O)c3ccc(F)cc3)cc21)c1ccccc1
GI50 (U-251): > 100 µM (inactive)
GI50 (UACC-257): > 100 µM (inactive)
GI50 (HOP-92): > 100 µM (inactive)
GI50 (OVCAR-8): > 100 µM (inactive)
GI50 (A498): 21 µM (inactive)
GI50 (UO-31): 25.7 µM (inactive)
GI50 (NCI-H23): > 100 µM (inactive)
GI50 (K562): > 100 µM (inactive)
GI50 (TK-10): > 100 µM (inactive)
GI50 (MDA-MB-435): > 100 µM (inactive)
GI50 (LOX IMVI): > 100 µM (inactive)
GI50 (MCF7): > 100 µM (inactive)
GI50 (PC-3): > 100 µM (inactive)
GI50 (NCI-H460): 53.5 µM (inactive)
GI50 (SR): > 100 µM (inactive)
GI50 (HT-29): 42.7 µM (inactive)
GI50 (SK-MEL-2): > 100 µM (inactive)
GI50 (ACHN): > 100 µM (inactive)
GI50 (SF-539): > 100 µM (inactive)
GI50 (HCT-116): > 100 µM (inactive)
GI50 (MDA-N): > 100 µM (inactive)
GI50 (OVCAR-4): > 100 µM (inactive)
GI50 (SW-620): > 100 µM (inactive)
GI50 (CCRF-CEM): > 100 µM (inactive)
GI50 (SNB-75): > 100 µM (inactive)
GI50 (KM12): > 100 µM (inactive)
GI50 (MOLT-4): 42.4 µM (inactive)
GI50 (SN12C): > 100 µM (inactive)
GI50 (NCI-H522): > 100 µM (inactive)
GI50 (SK-OV-3): > 100 µM (inactive)
GI50 (NCI-H226): > 100 µM (inactive)
GI50 (SK-MEL-5): 48 µM (inactive)
GI50 (NCI/ADR-RES): > 100 µM (inactive)
GI50 (SNB-19): > 100 µM (inactive)
GI50 (HCC 2998): > 100 µM (inactive)
GI50 (A549): 55.8 µM (inactive)
GI50 (MDA-MB-231): > 100 µM (inactive)
GI50 (HOP-62): > 100 µM (inactive)
GI50 (OVCAR-5): > 100 µM (inactive)
GI50 (IGROV-1): > 100 µM (inactive)
GI50 (Hs-578T): > 100 µM (inactive)
GI50 (786-0): > 100 µM (inactive)
GI50 (UACC-62): > 100 µM (inactive)
GI50 (T47D): 93.5 µM (inactive)
GI50 (RXF 393): > 100 µM (inactive)
GI50 (COLO 205): 66.2 µM (inactive)
GI50 (SF-268): > 100 µM (inactive)
GI50 (HCT-15): > 100 µM
GI50 (RPMI-8226): > 100 µM (inactive)
GI50 (HL-60): > 100 µM (inactive)
GI50 (Malme-3M): > 100 µM (inactive)
GI50 (CAKI-1): > 100 µM (inactive)
GI50 (M14): > 100 µM (inactive)
GI50 (DU-145): > 100 µM (inactive)
GI50 (SK-MEL-28): > 100 µM (inactive)

Reference: ChEMBL document CHEMBL1201862, “PubChem BioAssay data set” (2004)
